These results are taken from patent US20130345215A1, “PYRAZOLOPYRIMIDONE AND PYRAZOLOPYRIDONE INHIBITORS OF TANKYRASE” (Genentech, Inc., priority 2012, published 2013).

Like-named read-outs stand apart in the source and are kept apart here.

One experiment addresses T1, tankyrase 2 (TNKS2) (Homo sapiens, UniProt Q9H2K2).
T1 construct: His6-tankyrase 2 (construct: 934-1166) (His6-TNKS2)
As to the kind of experiment: μHTS-TNKS-IWR2 TR-FRET Binding Assay (Example 118), His6-TNKS2 substituted. Conditions: procedure in Example 118 with His6-TNKS2. The protocol:
(§1) μHTS-TNKS-IWR2 TR-FRET Binding Assay (10 μL/well in BD1536-well plate, a single point)
(§2) Reagents and Stock Solutions
Tankyrase 1 (TNKS1): 184.3 μM=5.2 mg/mL His6-TNKS1, MW=28.2 KDa (construct: 1088-1327, 1266M) in 20 mM Tris pH 8, 150 mM NaCl, 10% glycerol, and 0.5 mM TCEP. Alternatively, His6-tankyrase 2 (construct: 934-1166) (His6-TNKS2) or His6-PARP1 (full length) can be substituted for His6-TNKS 1.
(§3) Biotin-4-((1S,2R,6S,7R)-3,5-Dioxo-4-aza-tricyclo[5.2.1.0*2,6]dec-8-en-4-yl)-N-(4-methyl-quinolin-8-yl)-benzamide (Biotin-IWR2): 10 mM Biotin-IWR2 stock in DMSO, stored at −20° C.
Positive control: 10 mM 2-(4-Trifluoromethyl-phenyl)-3,5,7,8-tetrahydro-thiopyrano[4,3-d]pyrimidin-4-one (XAV939) in DMSO, stored at −20° C.
APC-anti-His Ab: 8.50 μM SL-APC, 8.26 μM anti-6His antibody-SureLight APC (Columia Bioscience, Catalog Number D3-1711, Lot Number N01010-AAH04)
Assay plate: BD 1536-well, clear/black plate (Catalog Number 353255)
(§4) Assay buffer 1a (AB1a) for TNKS dilution: 50 mM Tris, pH 7.4, 100 mM sodium chloride solution, 1 mM magnesium chloride solution, 1 mM DL-dithiothreitol solution, 0.2 mg/mL bovine serum albumin solution, 0.025% NP-40.
(§5) Assay buffer 1b (AB1b) for Biotin-IWR2 dilution: 50 mM Tris, pH 7.4, 100 mM sodium chloride solution, 1 mM magnesium chloride solution, 1 mM DL-dithiothreitol solution, 0.2 mg/mL bovine serum albumin solution, 0.05% NP-40
(§6) Assay buffer 1c (AB1c) for compound dilution: 50 mM Tris, pH 7.4, 100 mM sodium chloride solution, 1 mM magnesium chloride solution, 1 mM DL-dithiothreitol solution, 0.2 mg/mL bovine serum albumin solution
(§7) Assay buffer 2 (AB2) for Eu/APC: 50 mM Tris, pH 7.4, 100 mM sodium chloride solution, 1 mM magnesium chloride solution, 0.2 mg/mL bovine serum albumin solution
(§8) Reagent Stock Solution Preparation
Prepare Biotinylated IWR2 stock solution (3.33× stock) for TOTL and compound wells: 200 nM Biotin-IWR2 in 5% DMSO/AB1b buffer
(§9) Prepare BLANK well stock solution: 5% DMSO/AB1b buffer
Prepare POSITIVE CONTROL well stock solution (3.33× stock): 200 nM XAV939 in 200 nM Biotin-IWR2/5% DMSO/AB1b buffer
(§10) Prepare TNKS 1 stock solution (5× stock): 300 nM TNKS in AB1a buffer. (Alternatively, use TNKS2 or PARP1 stock solutions.)
Prepare Eu/APC stock solution (5× stock): 3.5 nM Eu-SA/50 nM APC-His6Ab in AB2 buffer.
Add 25 μL/well 1.5% DMSO/AB1c buffer in each compound well to the compound concentration at 74 μM in 8.8% DMSO/AB1c buffer or in the 2 μL DMSO CONTROL wells (BLANK, TOTAL and POSITIVE wells) in the compound plate. Transfer 3 μL/well of above solution (solution 1,2,3) to an empty assay plate (BD1536-well plate) as follows: • TOTAL and cpd wells: Solution 1 (Biotin-IWR2): • BLANK wells: Solution 2 (No Biotin-IWR2): • POSITIVE CONTROL wells: Solution 3 (Biotin-IWR2+XAV939)
Transfer 3 μL/well of the above diluted compound solutions or compound dilution buffer to the above assay plate. Add 2 μL/well of 300 nM TNKS stock solution (4) to every well in the above assay plate. Centrifuge the assay plate at 2100 rpm for 2 min. Incubate the assay plate at 26° C. for 30 minutes. Add 2 μL/well 3.5 nMEu/50 nM APC solution (5) to every well in the above assay plate. Centrifuge the assay plate at 2100 rpm for 2 min. Incubate the assay plate at 26° C. for 60 min. Read the assay plate immediately at excitation wavelength of 330 nm and emission wavelength of […] in time resolved fluorescence mode.
XAV939 (+ve control): 60 nM at ˜70% Inhibition
General Library compounds: 22.23 μM in 4% DMSO
For orientation: TR-FRET usually uses a lanthanide donor and a delayed reading to cut background.

In a further experiment the target is T2, Tankyrase 1 (TNKS1) (Homo sapiens, UniProt O95271).
T2 construct: His6-TNKS1, MW=28.2 KDa (construct: 1088-1327, 1266M)
T2 sequence (O95271 1088-1327): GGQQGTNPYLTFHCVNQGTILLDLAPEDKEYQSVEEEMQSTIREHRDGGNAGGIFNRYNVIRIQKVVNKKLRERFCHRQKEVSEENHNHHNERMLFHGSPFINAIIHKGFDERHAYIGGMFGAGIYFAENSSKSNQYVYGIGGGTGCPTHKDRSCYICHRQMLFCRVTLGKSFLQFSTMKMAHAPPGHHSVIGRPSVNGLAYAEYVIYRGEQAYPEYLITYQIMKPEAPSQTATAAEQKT
As to the kind of experiment: μHTS-TNKS-IWR2 TR-FRET Binding Assay (Example 118), His6-TNKS1. As to the method: as §1, §2, §3
(XAV939) in DMSO, stored at −20° C.
as §4, §5, §6, §7, §8, §9, §10
Transfer 3 μL/well of above solution (solution 1,2,3) to an empty assay plate (BD1536-well plate) as follows: • TOTAL and cpd wells: Solution 1 (Biotin-IWR2): • BLANK wells: Solution 2 (No Biotin-IWR2): • POSITIVE CONTROL wells: Solution 3 (Biotin-IWR2+XAV939)
Transfer 3 μL/well of the above diluted compound solutions or compound dilution buffer to the above assay plate. Add 2 μL/well of 300 nM TNKS stock solution (4) to every well in the above assay plate. Centrifuge the assay plate at 2100 rpm for 2 min. Incubate the assay plate at 26° C. for 30 minutes. Add 2 μL/well 3.5 nMEu/50 nM APC solution (5) to every well in the above assay plate. Centrifuge the assay plate at 2100 rpm for 2 min. Incubate the assay plate at 26° C. for 60 min.

Experiment [1] has as its system Wnt stimulated TCF transcriptional activity, HEK293-TS 112 TCF reporter cell line. As to the kind of experiment: Tankyrase 1 Assay (Example 119): Wnt3A-stimulated TOPbrite TCF luciferase reporter. Format: cell-based. The following applies: Compounds I-59 to I-144, procedure in Example 119 (0.5 ug/mL Wnt3A, 16 hours); read-out: TNKS1 (IC50). In short, it runs like this: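 HEK293 cells carrying TOPbrite firefly luciferase (eight TCF/LEF sites) were stimulated with 0.5 ug/mL Wnt3A and exposed to compounds for 16 hours at 37 degrees, 5% CO2. Firefly/SV40 Renilla luciferase ratio minus background from non-Wnt3A wells gave TCF activity; IC50 by four-parameter fit.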
Background: A reporter such as luciferase makes a cellular process visible.

T1 sequence (Q9H2K2 934-1166): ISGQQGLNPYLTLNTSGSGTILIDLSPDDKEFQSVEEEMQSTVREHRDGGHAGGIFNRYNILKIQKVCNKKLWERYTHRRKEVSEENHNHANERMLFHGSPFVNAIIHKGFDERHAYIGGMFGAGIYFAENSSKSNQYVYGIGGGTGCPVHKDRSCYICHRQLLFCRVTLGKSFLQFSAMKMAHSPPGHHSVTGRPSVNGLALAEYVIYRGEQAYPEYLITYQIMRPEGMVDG

In general, IC50 refers to the point on the concentration scale where inhibition reaches its midpoint. On to `Cn1ncc2c(=O)[nH]c(N3CCN(C4CCCC4)CC3)nc21` [Compound I-37, 6-(4-cyclopentylpiperazin-1-yl)-1-methyl-5H-pyrazolo[3 4-d]pyrimidin-4-one], for which the IC50 came out at 0.178 µM at tankyrase 2 (TNKS2) and 0.165 µM at Tankyrase 1 (TNKS1).
On the same counts, the results for `O=c1[nH]c(N2CCC(c3ccc(F)cc3)CC2)cc2[nH]ncc12` [Compound I-11, 6-[4-(4-fluorophenyl)-1-piperidyl]-1 5-dihydropyrazolo[4 3-c]pyridin-4-one] are 0.159 µM and 0.108 µM.
With `CCOC(=O)c1ccc(N2CCN(c3nc4c(cnn4C)c(=O)[nH]3)CC2)cc1` [Compound I-41, ethyl 4-[4-(1-methyl-4-oxo-5H-pyrazolo[3 4-d]pyrimidin-6-yl)piperazin-1-yl]benzoate], the figures for the IC50 at tankyrase 2 (TNKS2) and on Tankyrase 1 (TNKS1) were 0.135 µM and 0.107 µM, respectively.
On to `O=c1[nH]c(N2CCN(c3ccccc3F)CC2)nc2[nH]ncc12` [Compound I-10, 6-[4-(2-fluorophenyl)piperazin-1-yl]-1 5-dihydropyrazolo[3 4-d]pyrimidin-4-one], for which the half-maximal inhibitory concentration (IC50) on tankyrase 2 (TNKS2) was 0.376 µM; on Tankyrase 1 (TNKS1), 0.147 µM.
For “6-[4-(2- fluorophenyl)piperazin-1- yl]-1-methyl-5H- pyrazolo[4 3-c]pyridin-4- one [Compound I-7]”, the IC50 on tankyrase 2 (TNKS2) was 0.0412 µM; on Tankyrase 1 (TNKS1) (Compounds I-1 to I-58, procedure in Example 118 (TR-FRET, Biotin-IWR2 60 nM, TNKS 60 nM), read-out: TNKS1 (IC50)) it was 0.046 µM.
On to `CCC(=O)c1cc(F)c(N2CCN(c3nc4c(cnn4C)c(=O)[nH]3)CC2)c(F)c1` [Compound I-45, 6-[4-(2 6-difluoro-4-propanoyl-phenyl)piperazin-1-yl]-1-methyl-5H-pyrazolo[3 4-d]pyrimidin-4-one], for which the values for the IC50 at tankyrase 2 (TNKS2) and at Tankyrase 1 (TNKS1) were 0.033 µM and 0.028 µM, respectively.
On the same counts, the results for `Cn1ncc2c(=O)[nH]c(N3CCN(c4ccc(F)cc4F)CC3)nc21` [Compound I-14, 6-[4-(2 4-difluorophenyl)piperazin-1-yl]-1-methyl-5H-pyrazolo[3 4-d]pyrimidin-4-one] are 0.0471 µM and 0.039 µM.
`COCCOc1cc(F)c(F)c(N2CCN(c3nc4c(cnn4C)c(=O)[nH]3)CC2)c1` [Compound I-58] registered an IC50 at tankyrase 2 (TNKS2) of 0.0471 µM.
For the molecule `Cn1ncc2c(=O)[nH]c(N3CCC(S(C)(=O)=O)CC3)nc21` [Compound I-141, 1-methyl-6-(4-methylsulfonyl-1-piperidyl)-5H-pyrazolo[3 4-d]pyrimidin-4-one], in experiment [1], the IC50 came to 0.652 µM.
Still for that read-out and setting: in the case of `Cn1ncc2c(=O)[nH]c(N3CCC(c4ccccc4)CC3)nc21` [Compound I-101, 1-methyl-6-(4-phenyl-1-piperidyl)-5H-pyrazolo[3 4-d]pyrimidin-4-one] it was 0.0462 µM.
The same measure, in the same setting: the value for `COCCOc1cc(F)c(N2CCN(c3nc4c(cnn4CC(O)CO)c(=O)[nH]3)CC2)c(F)c1` (stereo not shown) [Compound I-113, 6-[4-[2 6-difluoro-4-(2-methoxyethoxy)phenyl]piperazin-1-yl]-1-(2 3-dihydroxypropyl)-5H-pyrazolo[3 4-d]pyrimidin-4-one] was 0.09 µM; that for `Cn1ncc2c(=O)[nH]c(N3CCN(c4c(F)cc(OCCN5CCOCC5)cc4F)CC3)nc21` [Compound I-74, 6-[4-[2 6-difluoro-4-(2-morpholinoethoxy)phenyl]piperazin-1-yl]-1-methyl-5H-pyrazolo[3 4-d]pyrimidin-4-one] was 0.0089 µM.
The same measure, in the same setting: the value for `Cn1ncc2c(=O)[nH]c(N3CCN(S(C)(=O)=O)CC3)nc21` [Compound I-142, 1-methyl-6-(4-methylsulfonylpiperazin-1-yl)-5H-pyrazolo[3 4-d]pyrimidin-4-one] was 0.74 µM; that for `Cn1ncc2c(=O)[nH]c(N3CCN(c4c(F)cc(OCCN5CCCCC5)cc4F)CC3)nc21` [Compound I-62, 6-{4-[2,6-Difluoro-4-(2-piperidin-1-yl-ethoxy)-phenyl]-piperazin-1-yl}-1-methyl-1,5-dihydro-pyrazolo[3,4-d]pyrimidin-4-one] was 0.005 µM.
As for `Cn1cc(CN2CCN(c3nc4c(cnn4C)c(=O)[nH]3)CC2)cn1` [Compound I-134, 1-methyl-6-[4-[(1-methylpyrazol-4-yl)methyl]piperazin-1-yl]-5H-pyrazolo[3 4-d]pyrimidin-4-one], in experiment [1], the IC50 came out at 0.342 µM.
Same read-out and setting: the value for `COCCOc1cc(F)c(N2CCN(c3nc4[nH]ncc4c(=O)[nH]3)CC2)c(F)c1` [Compound I-77, 6-[4-[2 6-difluoro-4-(2-methoxyethoxy)phenyl]piperazin-1-yl]-1 5-dihydropyrazolo[3 4-d]pyrimidin-4-one] was 0.0118 µM; that for `Cn1ncc2c(=O)[nH]c(N3CCC(Cc4ccncc4)C3)nc21` (stereo not shown) [Compound I-138, 1-methyl-6-[3-(4-pyridylmethyl)pyrrolidin-1-yl]-5H-pyrazolo[3 4-d]pyrimidin-4-one] was 0.536 µM.
Still for that read-out and setting: the value for `Cn1ncc2c(=O)[nH]c(N3CCN(CC4CCOCC4)CC3)nc21` [Compound I-116, 1-methyl-6-[4-(tetrahydropyran-4-ylmethyl)piperazin-1-yl]-5H-pyrazolo[3 4-d]pyrimidin-4-one] was 0.112 µM; that for `Cn1ncc2c(=O)[nH]c(N3CCC(C)(c4ccn(CCO)n4)CC3)nc21` [Compound I-89, 6-[4-[1-(2-hydroxyethyl)pyrazol-3-yl]-4-methyl-1-piperidyl]-1-methyl-5H-pyrazolo[3 4-d]pyrimidin-4-one] was 0.0218 µM; that for `Cn1ncc2c(=O)[nH]c(N3CCN(c4c(F)cc(OCCO)cc4F)CC3)nc21` [Compound I-78, 6-[4-[2 6-difluoro-4-(2-hydroxyethoxy)phenyl]piperazin-1-yl]-1-methyl-5H-pyrazolo[3 4-d]pyrimidin-4-one] was 0.012 µM.
`O=c1[nH]c(N2CCN(c3c(F)cccc3F)CC2)nc2[nH]ncc12` [Compound I-80, 6-[4-(2 6-difluorophenyl)piperazin-1-yl]-1 5-dihydropyrazolo[3 4-d]pyrimidin-4-one]: in experiment [1], the IC50 is 0.014 µM.
